In patent US20240381872A1, “SUBSTITUTED 2,3-DIHYDRO[1,3]THIAZOLO[4,5-B]PYRIDINES, SALTS THEREOF AND THEIR USE AS HERBICIDALLY ACTIVE SUBSTANCES” (BAYER AKTIENGESELLSCHAFT, priority 2021, published 2024):

What was measured:
Format in all cases: in vivo
[1] = tested on: Echinochloa crus-galli (ECHCG); experiment: Herbicidal post-emergence action, section E (Table E5); settings: visual assessment ca. 3 weeks after spraying
Text: (§1) Seeds of mono- and dicotyledonous weed plants and crop plants were sown, in plastic or organic planting pots, in sandy loam, covered with soil and grown in a greenhouse under controlled growth conditions. 2 to 3 weeks after sowing, the test plants were sprayed in the single-leaf stage. The compounds according to the invention, formulated in form of wettable powders (WP) or as emulsifiable concentrates (EC), were sprayed onto the green plant parts as aqueous suspension or emulsion, with the addition of 0.5% of an additive, at an application rate of 600 l of water/ha (converted). The test plants were placed in the greenhouse for ca. 3 weeks under optimum growth conditions, and then the effect of the preparations was assessed visually in comparison with untreated controls (herbicidal effect in percent (%): 100% effect=plants have died off, 0% effect=as control plants).

Stellaria media (STEME) = experiment: Herbicidal pre-emergence action, section A (Table A9)
How it was run: (§2)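 Read-out is visual herbicidal effect in percent (100% = plants died, 0% = as control), graded ca. 3 weeks after treatment. Test compounds as WP or EC were applied to covering soil over sown seeds with 0.5% additive, 600 l water per hectare; greenhouse growth.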

[2] = tested on: Matricaria inodora (MATIN); experiment: Herbicidal pre-emergence action, section C (Table C6); settings: visual grading after ca. 3 weeks
Text: Seeds of mono- and dicotyledonous weed plants and crop plants were sown, in plastic or organic planting pots, in sandy loam and covered with soil. The compounds according to the invention, formulated in the form of wettable powders (WP) or as emulsifiable concentrates (EC), were applied to the surface of the covering soil as aqueous suspension or emulsion, with the addition of 0.5% of an additive, at an application rate of 600 l of water/ha (converted). Following treatment, the pots were placed in a greenhouse and kept under optimum growth conditions for the test plants. The visual grading of the damage to the test plants was carried out after ca. 3 weeks in comparison to untreated controls (herbicidal effect in percent (%): 100% effect=plants have died off, 0% effect=as control plants).

[3] = tested on: Matricaria inodora (MATIN); experiment: Herbicidal pre-emergence action, section A (Table A6); settings: visual grading after ca. 3 weeks vs untreated controls
How it was run: as §2

[4] = tested on: Alopecurus myosuroides (ALOMY); experiment: Herbicidal post-emergence action, section E (Table E2); settings: application rate 320 g/ha, assessed visually after ca. 3 weeks; for pest or weed control at 320 g/ha: Alopecurus myosuroides, post-emergence, 504 h, read-out: post-emergence activity against ALOMY in %
Text: as §1

Poa annua (POAAN) [5] = experiment: Herbicidal pre-emergence action, section A (Table A7); settings: visual grading after ca. 3 weeks vs untreated controls
How it was run: as §2

[6] = tested on: Polygonum convolvulus (POLCO); experiment: Herbicidal post-emergence action, section E (Table E7); settings: visual assessment ca. 3 weeks after spraying
How it was run: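 Post-emergence greenhouse spray onto single-leaf-stage plants raised in sandy loam, using WP or EC formulations with 0.5% additive at 600 l water/ha. Effect is the visual percentage damage relative to untreated controls after about 3 weeks.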

[7] = tested on: Alopecurus myosuroides (ALOMY); experiment: Herbicidal pre-emergence action, section A (Table A2); settings: visual grading after ca. 3 weeks vs untreated controls
How it was run: as §2

Poa annua (POAAN) [8] = experiment: Herbicidal post-emergence action, section B (Table B7); settings: visual rating about 3 weeks after treatment vs untreated controls
How it was run: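 Under optimum greenhouse conditions, sandy-loam-grown weeds at the one-leaf stage are sprayed with aqueous suspension or emulsion carrying 0.5% additive, 600 liters per hectare. About 3 weeks later, visual percent activity is scored relative to untreated controls.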

Kochia scoparia (KCHSC) = experiment: Herbicidal pre-emergence action, section A (Table A4); settings: visual grading after ca. 3 weeks vs untreated controls
How it was run: as §2

[9] = tested on: Triticum aestivum (TRZAS); experiment: Post-emergence effects on crop plants, section F (Table F2); settings: application rate 80 g/ha; for percent crop plant damage (wheat, post-emergence) at 80 g/ha: Triticum aestivum, 504 h, read-out: post-emergence activity against TRZAS in %; for post-emergence activity against TRZAS in %: crop plant damage
How it was run: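 Sandy loam, greenhouse, controlled conditions. Spray at single-leaf stage (2–3 wk post-sowing); WP/EC aqueous suspension/emulsion + 0.5% additive, 600 l water/ha; rate ≤320 g/ha. Visual scoring ca. 3 wk post-spray vs untreated, % effect.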

[10] = Fallopia convolvulus, 504 h, application rate 80 g/ha, read-out: post-emergence activity against POLCO in %
[11] = Alopecurus myosuroides, pre-emergence, 504 h, application rate 1280 g/ha, read-out: pre-emergence activity against ALOMY in %
[12] = Poa annua, post-emergence, 504 h, application rate 1280 g/ha, read-out: post-emergence activity against POAAN in %
[13] = Bassia scoparia, pre-emergence, 504 h, application rate 1280 g/ha, read-out: pre-emergence activity against KCHSC in %
[14] = Echinochloa crus-galli, 504 h, application rate 320 g/ha, read-out: post-emergence activity against ECHCG in %
[15] = Stellaria media, 504 h, application rate 320 g/ha, read-out: pre-emergence activity against STEME in %
[16] = Tripleurospermum inodorum, pre-emergence, 504 h, application rate 320 g/ha, read-out: pre-emergence activity against MATIN in %

| SMILES | pest or weed control at 320 g/ha [4] [%] | post-emergence activity against ECHCG in % ([1]; application rate 320 g/ha) [%] | pre-emergence activity against STEME in % (Stellaria media (STEME); application rate 320 g/ha) [%] | pre-emergence activity against MATIN in % ([2]; application rate 320 g/ha) [%] | pre-emergence activity against MATIN in % ([3]; application rate 320 g/ha) [%] | post-emergence activity against ALOMY in % [4] [%] | pre-emergence activity against POAAN in % (Poa annua (POAAN) [5]; application rate 320 g/ha) [%] | post-emergence activity against POLCO in % ([6]; application rate 320 g/ha) [%] | pre-emergence activity against ALOMY in % ([7]; application rate 320 g/ha) [%] | post-emergence activity against POAAN in % (Poa annua (POAAN) [8]; application rate 320 g/ha) [%] | pre-emergence activity against KCHSC in % (Kochia scoparia (KCHSC); application rate 320 g/ha) [%] | post-emergence activity against TRZAS in % [9] [%] | further results |
| --- | --- | --- | --- | --- | --- | --- | --- | --- | --- | --- | --- | --- | --- |
| Cc1cc2c(nc1-c1ccccc1F)NCS2 [Example I-007, 5-(2-fluorophenyl)-6-methyl-2,3-dihydro[1,3]thiazolo[4,5-b]pyridine] | 90 | – | – | – | – | – | – | – | – | – | – | – | pest or weed control at 80 g/ha ([1]; Echinochloa crus-galli, 504 h, application rate 80 g/ha, read-out: post-emergence activity against ECHCG in %): 90%; pest or weed control at 1280 g/ha (Stellaria media (STEME); Stellaria media, 504 h, application rate 1280 g/ha, read-out: pre-emergence activity against STEME in %): 90%; pest or weed control at 80 g/ha ([2]; Tripleurospermum inodorum, pre-emergence, 504 h, application rate 80 g/ha, read-out: pre-emergence activity against MATIN in %): 80%; pest or weed control at 1280 g/ha ([3]; Tripleurospermum inodorum, pre-emergence, 504 h, application rate 1280 g/ha, read-out: pre-emergence activity against MATIN in %): 90%; pest or weed control at 320 g/ha (Poa annua (POAAN) [5]; Poa annua, pre-emergence, 504 h, application rate 320 g/ha, read-out: pre-emergence activity against POAAN in %): 100%; pest or weed control at 80 g/ha [6, 10]: 90%; pest or weed control at 1280 g/ha [7, 11]: 100%; pest or weed control at 1280 g/ha (Poa annua (POAAN) [8]; [12]): 90%; pest or weed control at 1280 g/ha (Kochia scoparia (KCHSC); [13]): 90% |
| COC(=O)CCC(=O)N1CSc2cc(C)c(-c3ccccc3F)nc21 [Example I-010] | – | 90 | 100 | 90 | 90 | 80 | 100 | 90 | – | – | – | – | pre-emergence activity against ALOMY in % ([7]; application rate 1280 g/ha): 100%; post-emergence activity against POAAN in % (Poa annua (POAAN) [8]; application rate 1280 g/ha): 90%; pre-emergence activity against KCHSC in % (Kochia scoparia (KCHSC); application rate 1280 g/ha): 100% |
| Cc1cc2c(nc1-c1cccc(F)c1F)NCS2 [Example I-029, 5-(2,3-difluorophenyl)-6-methyl-2,3-dihydro[1,3]thiazolo[4,5-b]pyridine] | 80 | – | – | – | – | – | – | – | – | – | – | – | pest or weed control at 320 g/ha [1, 14]: 80%; pest or weed control at 320 g/ha (Stellaria media (STEME); [15]): 90%; pest or weed control at 320 g/ha [2, 16]: 80%; pest or weed control at 320 g/ha [3, 16]: 90%; pest or weed control at 1280 g/ha (Poa annua (POAAN) [5]; Poa annua, pre-emergence, 504 h, application rate 1280 g/ha, read-out: pre-emergence activity against POAAN in %): 100%; pest or weed control at 320 g/ha ([6]; Fallopia convolvulus, 504 h, application rate 320 g/ha, read-out: post-emergence activity against POLCO in %): 90%; percent crop plant damage (wheat, post-emergence) at 80 g/ha [9]: 10%; pest or weed control at 1280 g/ha [7, 11]: 90%; pest or weed control at 1280 g/ha (Poa annua (POAAN) [8]; [12]): 90%; pest or weed control at 320 g/ha (Kochia scoparia (KCHSC); Bassia scoparia, pre-emergence, 504 h, application rate 320 g/ha, read-out: pre-emergence activity against KCHSC in %): 100% |
| Cc1cc2c(nc1-c1ccccc1F)N(C(=O)C1(C)CC(Cl)=NO1)CS2 (stereo not shown) [Example I-083] | – | – | 90 | 90 | – | 90 | – | 90 | 100 | 90 | 90 | – | post-emergence activity against ECHCG in % ([1]; application rate 80 g/ha): 80%; pre-emergence activity against MATIN in % ([3]; application rate 1280 g/ha): 90%; pre-emergence activity against POAAN in % (Poa annua (POAAN) [5]; application rate 1280 g/ha): 100% |
| Cc1cc2c(nc1-c1ccccc1F)N(C(=O)C13CCCC1C(Cl)=NO3)CS2 (stereo not shown) [Example I-104] | – | 80 | 90 | – | 100 | 80 | 100 | 90 | 90 | 90 | 90 | 0 | pre-emergence activity against MATIN in % ([2]; application rate 800 g/ha (so in the source)): 90% |
| Cc1cc2c(nc1-c1ccccc1F)N(S(=O)(=O)Cc1ccc(F)cc1)CS2 [Example I-122] | – | 90 | 90 | 80 | 90 | 90 | 100 | 90 | – | 90 | 90 | 20 | pre-emergence activity against ALOMY in % ([7]; application rate 1280 g/ha): 100% |
| CCOCCS(=O)(=O)N1C[S+]([O-])c2cc(C)c(-c3ccccc3F)nc21 (stereo not shown) [Example I-127] | 90 | – | – | – | – | – | – | – | – | – | – | – | pest or weed control at 320 g/ha [1, 14]: 90%; pest or weed control at 320 g/ha (Stellaria media (STEME); [15]): 90%; pest or weed control at 320 g/ha [2, 16]: 90%; pest or weed control at 320 g/ha [3, 16]: 100%; pest or weed control at 80 g/ha [6, 10]: 90%; percent crop plant damage (wheat, post-emergence) at 80 g/ha [9]: 0%; pest or weed control at 320 g/ha ([7]; Alopecurus myosuroides, pre-emergence, 504 h, application rate 320 g/ha, read-out: pre-emergence activity against ALOMY in %): 100%; pest or weed control at 320 g/ha (Poa annua (POAAN) [8]; Poa annua, post-emergence, 504 h, application rate 320 g/ha, read-out: post-emergence activity against POAAN in %): 90%; pest or weed control at 1280 g/ha (Kochia scoparia (KCHSC); [13]): 100% |
| COCC1(C(=O)N2CSc3cc(C)c(-c4ccccc4F)nc32)CC(Cl)=NO1 (stereo not shown) [Example I-128] | – | 90 | 90 | – | 100 | 90 | 100 | – | 100 | – | 90 | – | pre-emergence activity against MATIN in % ([2]; application rate 80 g/ha): 80%; post-emergence activity against POLCO in % ([6]; application rate 80 g/ha): 90%; post-emergence activity against POAAN in % (Poa annua (POAAN) [8]; application rate 1280 g/ha): 90% |
| Cc1ccccc1-c1nc2c(cc1C)SCN2C(=O)C1(C)CC(Cl)=NO1 (stereo not shown) [Example I-137] | – | 90 | – | 90 | 90 | 80 | 100 | 80 | 90 | 90 | 90 | 0 | pre-emergence activity against STEME in % (Stellaria media (STEME); application rate 1280 g/ha): 100% |
